Patent US10076509B2, “Nested particles and the use thereof for coordinated delvery of active agents” (Board of Regents, the University of Texas System, priority 2015, dated 2018)

Legend:
[1] = system: MCF-7 breast tumor xenografts; test: In vivo accumulation and release of nested nanoparticles in breast tumors
Method: MCF-7 cells (5×10^6) were inoculated in the mammary fat pads of 4- to 6-week-old female nu/nu mice. Mice were implanted with 17β-estradiol pellets subcutaneously. Nanoparticles were administered intravenously and at predetermined timepoints, the mouse was sacrificed and the tumor harvested. Tumor tissues were frozen and sectioned into 7 μm tissue slices using an HM 550 Cryostat (Thermo Fischer Scientific, Waltham, Mass., USA). Tissues were fixed and stained with 4% methanol-free paraformaldehyde for 20 min. Following fixation, samples were washed with PBS. Slides were mounted and tissues imaged using confocal microscopy as previously described. The presence of fluorescence over time, surface intensity plots, and area fraction of the tissue sections were examined using Nikon Elements v4.1 software. For area fraction analysis, the fluorescence emitted by bodipy and rhodamine was obtained from 4 sections from different regions of the tumor (n=3). A ratiometric percentage of area fractions of both fluorophores were extracted from the total area of the image.

[2] = Release kinetics from nested nanoparticles (fluorophore release, zeta potential over time); format: physicochemical; details: PBS pH 7.4, 37° C.
Method: FIGS. 4A-C. Examination of nested nanoparticle release kinetics. 4A. […] 4B. […] 4C.
Fluorophore release was determined according to a previously published procedure (Woodrow et al., 2009). Absorbance of bodipy and rhodamine were detected using the Synergy H4 Hybrid Reader as described above. In a separate study, nanoparticles were centrifuged at predetermined timepoints, resuspended in water, and the surface charge determined via zeta potential analysis, as described above.

[3] = Finite Element modeling of release kinetics from nested nanoparticles
Description: Due to the fact that the physico-chemical properties of the core and shell, as well as bodipy and rhodamine, are different, a computational method accounting for diffusivities and molecule partitioning was used to analyze release kinetics from nested nanoparticles. Use of the model helped determine that sequential release may be achieved and controlled not only by different diffusion properties in different phases, but also partitioning. […] The model estimated experimental release curves by using partitioning coefficients of 5.0×109 and 2.2×1011 for bodipy and rhodamine, respectively (FIG. 4a). The half-time of release of the maximum releasable material was estimated to be 15 h for the shell and 46 h for the core. The diffusivity of rhodamine inside the PLGA nanoparticle matrix was estimated to be 4×10^−10 cm2/s, which was approximately 104 times lower than that in water, while that of bodipy in the shell was reduced by only 5 times compared to that in water. […] This is illustrated in the distinct phases of dominant fluxes over time (FIG. 4b).
A Finite Element (FE) method was used to model drug diffusion. The model included partitioning conditions at the surfaces, in this case between the core and the surrounding fluid. Thus, aside from the incremental-iterative system of mass balance equations (Kojic et al., 2008; Ziemys et al., 2011; Kojic et al., 2011):
the partitioning condition was included ΔNs/ΔNf=ΔCs/Δf=P Here, M and K are element mass and diffusion matrices, ΔC represents nodal concentration increments, Q^ext and Q^tnt are external and internal nodal mass fluxes; ΔNs and ΔNf are number of molecules of solid and fluid (per FE node) passing during time step Δt, and ΔCs and ΔCf are the corresponding concentration changes at boundary nodes with partitioning property; P is partitioning coefficient; and i specifies the equilibrium iteration counter. The important material parameter in the above balance equation is the diffusion coefficient D entering the diffusion matrix K:
[formula] where NI, NJ are interpolation functions and V is element volume. […]

[4] = Release of rapamycin and paclitaxel from nested nanoparticles; format: physicochemical; details: rapamycin in outer shell, paclitaxel in polymeric core
Description: FIG. 14. Nested nanoparticles containing both rapamycin and paclitaxel release drug in a time and sequential fashion.

[5] = model parameter; from literature for rhodamine, approximated from literature for bodipy; cited from earlier work
[6] = initial timepoints leading up to 3 h, bodipy in QAβ-CD shell, rhodamine in PLGA core

Area fraction of fluorophore in tumor ([1]; mouse, in vivo, iv) | Area fraction: amount of fluorophore in tumor ([1]; mouse, in vivo, iv) | Fluorophore in tumor tissue ([1]; mouse, in vivo, iv) | Time after which release plateaus [2] [h] | Cumulative release from nested nanoparticles ([2]; by 6 h) [%] | Cumulative release from nested nanoparticles ([2]; by 12 h) [%] | Cumulative release from nested nanoparticles [2, 6] [%] | Reduction of diffusivity inside material compared to that in water ([3]; rhodamine in PLGA matrix, bodipy in shell) [times] | Release from nested nanoparticles [4] | Area fraction of fluorophore in tumor ([1]; 3 h after intravenous nested nanoparticles) | Area fraction: amount of fluorophore in tumor ([1]; 96 h after intravenous nested nanoparticles) | Cumulative release from nested nanoparticles ([2]; "by this same timepoint" (12 h or 48 h, not clear)) [%] | Cumulative release from nested nanoparticles ([2]; in 96 h) [%] | Time after which rhodamine flux overtook the flux of bodipy ([3]; fluxes of release from nested nanoparticles) [h] | Diffusivity inside the PLGA nanoparticle matrix ([3]; model estimate) | Compound | Dwater (diffusivity in water) [5]
ratiometrically similar amounts | decreased significantly | marked decrease | > 48 | 34 | 50 | 7 | 5 |  |  |  |  |  |  |  | O=C(COc1ccc(/C=C/C2=[N+]3C(=Cc4ccc(-c5cccs5)n4[B-]3(F)F)C=C2)cc1)NCCCCCC(=O)ON1C(=O)CCC1=O [bodipy] | 
 |  |  |  |  |  |  |  | slow and prolonged release |  |  |  |  |  |  | CC(=O)O[C@H]1C(=O)[C@@]2(C)[C@H]([C@H](OC(=O)c3ccccc3)[C@]3(O)C[C@H](OC(=O)[C@H](O)[C@@H](NC(=O)c4ccccc4)c4ccccc4)C(C)=C1C3(C)C)[C@]1(OC(C)=O)CO[C@@H]1C[C@@H]2O [paclitaxel] | 
 |  |  |  |  |  | 3 |  |  | ratiometrically similar amounts | increase | ~6 | 34 | > 24 | 4×10^−10 cm2/s | Rhodamine | 4.10^−6 cm^2/s
